Results taken from paper PMC7615343, “Fluorination Influences the Bioisostery of Myo-Inositol Pyrophosphate Analogs” (Chemistry (Weinheim an der Bergstrasse, Germany), 2023).

Experiments:
[1] = molecular target: T1, PPIP5K2^1-366 (human PPIP5K2 kinase domain) (Homo sapiens, UniProt O43314); assay: Isothermal titration calorimetry of ligand binding to PPIP5K2KD; details: ITC, 25°C; for ΔH / ΔS: 7.5 μM PPIP5K2^1-366, 75 μM ligand, pH 7.2; for Kd: 7.5 μM PPIP5K2^1-366 in cell, 75 μM ligand in syringe, pH 7.2, 1mM AMP-PNP, 1mM MgCl2, read-out: Kd (apparent)
T1 construct: one comprised residues 1–366; made in house
T1 sequence (O43314 1-366): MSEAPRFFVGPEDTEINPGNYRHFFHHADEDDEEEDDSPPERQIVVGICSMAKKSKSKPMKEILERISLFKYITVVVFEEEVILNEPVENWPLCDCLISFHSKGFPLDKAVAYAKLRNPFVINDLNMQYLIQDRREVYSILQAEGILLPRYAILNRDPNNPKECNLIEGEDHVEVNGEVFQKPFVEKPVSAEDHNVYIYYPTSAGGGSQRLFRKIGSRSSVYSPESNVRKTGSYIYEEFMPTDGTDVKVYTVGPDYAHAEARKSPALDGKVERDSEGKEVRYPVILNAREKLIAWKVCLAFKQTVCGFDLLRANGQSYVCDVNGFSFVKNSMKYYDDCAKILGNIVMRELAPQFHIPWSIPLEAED
Source text: We next used isothermal titration calorimetry (ITC) to analyze the interactions of PPIP5K2^KD with 5PP-IP5 and each of the four analogs studied herein (Figure 5A-E). […] At the same time, the enthalpic gain for binding was largest for 5PCF2Am-IP5 and 5PA-IP5. A possible explanation may be that these two ligands are less strongly hydrated, due to their lower overall charge. The enthalpic cost for dehydration of 5PCF2Am-IP5 and 5PA-IP5 is therefore lower, compared to the other molecules, resulting in a higher enthalpic gain overall. A less strongly hydrated ligand will also release fewer water molecules upon binding, consistent with the lower entropic gains.
Figure 5 Analysis of ligand binding to the PPIP5K2^KD by ITC. Test solutions contained 7.5 μM of PPIP5K2^1-366 in the sample cell and 75 μM ligand in the syringe. Other details are provided in the Methods Section. Representative thermograms (1 of 3 replicates) are shown for titration of either (A) 5PP-IP5; (B) 5PCPF2P-IP5; (C) 5PCP-IP5; (D) 5PCF2Am-IP5; (E) 5PA-IP5. (F) Corresponding thermodynamic data. TEXT PRINTED IN THE PICTURE: (F) 5PP-: Kd (nM): 123 ± 13; ΔH (kJ/mol): -26 ± 2; ΔS (kJ/mol/deg): 0.046 ± 0.008 | (F) 5PCF2-: Kd (nM): 246 ± 10; ΔH (kJ/mol): -16 ± 1; ΔS (kJ/mol/deg): 0.072 ± 0.005 | (F) 5PCP-: Kd (nM): 100 ± 10; ΔH (kJ/mol): -20 ± 2; ΔS (kJ/mol/deg): 0.067 ± 0.016 | (F) 5PCF2-Am-: Kd (nM): 90 ± 13; ΔH (kJ/mol): -38 ± 2; ΔS (kJ/mol/deg): 0.007 ± 0.004 | (F) 5PA-: Kd (nM): 90 ± 7; ΔH (kJ/mol): -36 ± 3; ΔS (kJ/mol/deg): 0.013 ± 0.008 […]
(§1) Calorimetry experiments were performed using a MicroCal PEAQ-ITC (Malvern Panalytical) with 7.5 μM recombinant PPIP5K21-366 in the sample cell and 75 μM of ligand in the syringe, each of which was maintained at 25°C in buffer containing 20 mM HEPES, pH 7.2, 150 mM KCl, 0.05 mM EDTA, 1mM AMP-PNP, 1mM MgCl2 as indicated. The sample cell (volume = 204 μL) and the syringe were cleaned before each run. Thermograms were constructed from 13 injections, each of which involved 3 μL of ligand delivered for 6 s, with an equilibration time of 150-300 s between each injection. The stirring speed was set to 750 rpm. Data were fitted to a single binding site model using the analysis software provided by the manufacturer. At least three runs were performed for each condition.
Protein expression and purification.
Throughout the main text, PPIP5K2KD is deployed as an abbreviation for the human PPIP5K2 kinase domain. However, two different constructs were utilized, as described in the figure legends and within the Methods section below: one comprised residues 1–366 (PPIP5K21-366) and the other comprised residues 41–366 (PPIP5K241-366). Both constructs were expressed and purified as described previously.[6] The human DIPP1 construct (residues 1-148) was expressed and purified as described in [7]. […]
The molecular graphics representations wer e prepared with the program PyMol (Schrödinger, LLC). Atomic coordinates an d structure factors have been deposited with the Protein Data Bank with accession codes 8G9C, 8G9D, 8G9E.
PPIP5K2KD reverse kinase assay […]
Isothermal titration calorimetry
as §1, with “PPIP5K21–366” for “PPIP5K21-366”, “2 04 µL)” for “204 μL)”, “µL” for “μL”, “150 -300” for “150-300”, “cond ition. […]” for “condition.”

[2] = molecular target: T1, PPIP5K2^1-366 (human PPIP5K2 kinase domain); details: published value; read-out: IC50, inhibition of the reverse kinase activity of PPIP5K2KD; cited from earlier work

Row | ΔH [1] [kJ/mol] | ΔS [1] [kJ/mol/deg] | Kd [1] [µM] | Compound | IC50 [2] [µM]
1 | -26 ± 2 | 0.046 ± 0.008 | 0.123 | O=P(O)(O)O[C@H]1[C@@H](OP(=O)(O)O)[C@H](OP(=O)(O)O)[C@@H](OP(=O)(O)OP(=O)(O)O)[C@H](OP(=O)(O)O)[C@H]1OP(=O)(O)O [5PP-IP5, 5-diphosphoinositol pentakisphosphate] | –
2 | -36 ± 3 | 0.013 ± 0.008 | 0.09 ± 0.007 | O=C(CP(=O)(O)O)O[C@@H]1[C@@H](OP(=O)(O)O)[C@H](OP(=O)(O)O)[C@H](OP(=O)(O)O)[C@H](OP(=O)(O)O)[C@H]1OP(=O)(O)O [5PA-IP5] | 0.129

Row | Compound | ΔH [1] [kJ/mol] | ΔS [1] [kJ/mol/deg] | Kd [1] [µM] | IC50 [2] [µM]
3 | O=C(N[C@@H]1[C@@H](OP(=O)(O)O)[C@H](OP(=O)(O)O)[C@H](OP(=O)(O)O)[C@H](OP(=O)(O)O)[C@H]1OP(=O)(O)O)C(F)(F)P(=O)(O)O [5PCF2Am-IP5] | -38 ± 2 | 0.007 ± 0.004 | 0.09 ± 0.013 | –
